Results from US20020076833A1, “Analysis of biological samples utilizing a coated solid phase” (priority 2000, published 2002).

What was measured:
Format in all cases: cell-based, human
[1] = test system: membrane GPIIb/IIIa on platelets; test: GPIIb/IIIa assay with fibrinogen-coated microparticles (Example 7); details: two minutes
Procedure: 3.7 micron (μm) carboxyl-modified paramagnetic microparticles were coated with Human Fibrinogen which interacts and binds with the complexed form of the platelet membrane surface component glycoproteins GPIIb/GPIIIa (CD41/CD61). The coated particles were re-suspended in phosphate buffered saline (PBS) buffer at 0.5% w/v.
(§1) Whole blood was obtained from a healthy volunteer and collected into a 3.0 mL blood collection tube containing 0.3 μg D-phe-pro-arg-chloromethylketone (PPACK, Dihydrochloride) and 2.1 mL Hanks' Balanced Salt supplemented with 10 mM HEPES, pH 7.4. An aliquot of this whole blood preparation was stimulated with 10 μM adenosine 5′-diphosphate (ADP) for two minutes prior to being tested in the assay. Another aliquot was stimulated with 2 μM adenosine 5′-diphosphate (ADP) for two minutes prior to being tested in the assay, and a final aliquot was not treated with ADP.
To a set of 5 μL, 10 μL, and 20 μL of each of the above three sample preparations 20 μL of FITC-labeled anti-IIb/IIIa (anti-CD41a) mouse monoclonal antibody (at 20 μg/mL) was added. The mixture was incubated for 10 minutes at room temperate at which point 50 μL of 0.5% (w/v) paramagnetic microparticles (3.7 micron (μm)) coated with Fibrinogen was added. The mixtures were incubated at room temperature for an additional 10 minutes. The microparticles were separated magnetically and the supernatant was removed. The microparticles were washed by re-suspension in 200 μL of PBS supplemented with 1% bovine serum albumin (BSA), followed by magnetic separation of the microparticles and removal of the supernatant. This sequence was repeated three times and the microparticles were re-suspended in 0.1% SDS at pH 11. The microparticles were separated magnetically and the supernatants were transferred to a 96 well plate and examined for fluorescence intensity.

[2] = test system: membrane-bound P-selectin on platelets; test: Membrane P-Selectin assay (Example 8); details: two minutes
Procedure: as §1
To a set of 10 μL and 20 μL of each of the above three sample preparations 20 μL of FITC-labeled anti P-Selectin (anti-CD62P) rabbit polyclonal antibody (at 20 μg/mL) was added. The mixture was incubated for 10 minutes at room temperate at which point 50 μL of 0.5% (w/v) paramagnetic microparticles (3.7 micron (μm)) coated with anti-glycoprotein GP1b (CD42b) murine monoclonal antibody (Mab) was added. The mixtures were incubated at room temperature for an additional 10 minutes. The microparticles were separated magnetically and the supernatant was removed. The microparticles were washed by re-suspension in 200 μL of PBS supplemented with 1% bovine serum albumin (BSA) followed by magnetic separation of the microparticles and removal of the supernatant. This sequence was repeated three times and the microparticles were re-suspended in 0.1% SDS at pH 11. The microparticles were separated magnetically, and the supernatants were transferred to a 96 well plate and examined for fluorescence intensity.

[3] = test system: membrane-bound P-selectin on platelets; test: 1-Step membrane P-selectin assay in whole blood (Example 5); details: 10 μM ADP for two minutes, formalin fixed
Procedure: Whole blood was obtained from a healthy volunteer and collected into a blood collection tube containing D-phe-pro-arg-chloromethylketone (PPACK, Dihydrochloride). An aliquot of whole blood was stimulated with 10 μM adenosine diphosphate (ADP) for two minutes and then fixed for two minutes with neutral buffered formalin (1% final concentration). Another aliquot was not treated with ADP, but only fixed with 1% neutral buffered formalin for two minutes
To 100 μL of each of the above three sample preparations the following reagents were added: 50 μL of FITC-labeled anti-P-selectin (anti-CD62P) rabbit polyclonal antibody (at 20 μg/mL) and 50 μL of 0.5% (w/v) paramagnetic microparticles (3.7 micron (μm)) coated with anti-glycoprotein GPIb (CD42b) murine monoclonal antibody (Mab). The mixtures were incubated at room temperature for either 10 or 15 minutes. The microparticles were separated magnetically and the supernatant was removed. The microparticles were washed by re-suspension in 200 μL of PBS supplemented with 1% bovine serum albumin (BSA) followed by magnetic separation of the microparticles and removal of the supernatant. This sequence was repeated and the microparticles were re-suspended in 0.1% SDS at pH 11. The microparticles were separated magnetically and the supernatants were transferred to a 96 well plate and examined for fluorescence intensity.

[4] = test system: membrane P-selectin on platelets; test: 2-Step membrane P-selectin assay in whole blood (Example 6); details: 10 μM ADP (with 1.0 uM Epinepherine where named) for two minutes, formalin treated
Procedure: Whole blood was obtained from a healthy volunteer and collected into a sample collection tube containing D-Phe-Pro-Arg-chloromethylketone (PPACK, dihydrochloride). An aliquot of whole blood was stimulated with 10 μM adenosine diphosphate (ADP) and 1.0 uM Epinepherine for two minutes and then treated for two minutes with neutral buffered formalin (1% final concentration). An additional aliquot of whole blood was stimulated with 10 μM ADP for two minutes and then treated for two minutes with neutral buffered formalin. An additional aliquot of whole blood was treated for two minutes with 1% neutral buffered formalin for two minutes without ADP stimulation.
50 μL of 0.5% (w/v) paramagnetic microparticles (3.7 micron (μm)), which were coated with anti-glycoprotein GP1b murine monoclonal antibodies (Mab), were added to 100 μL of each of the above sample preparations. The mixtures were incubated at room temperature for 10 minutes. The microparticles were separated magnetically and the supernatant was removed. The microparticles were washed by re-suspension in 200 μL of PBS supplemented with 1% BSA. The microparticles were again separated magnetically and the supernatant removed. […] The microparticles were separated magnetically and the supernatants transferred to a 96 well plate and examined for fluorescence intensity.

In the case of `Nc1ncnc2c1ncn2[C@@H]1O[C@H](COP(=O)(O)OP(=O)(O)O)[C@@H](O)[C@H]1O` [ADP, adenosine diphosphate], the “FITC Signal Detected” value ([1]; 2 uM ADP, sample volume 5 μL) is reported as 524, the “FITC Signal Detected” value ([1]; 2 uM ADP, sample volume 10 μL) is reported as 579 and the “FITC Signal Detected” value ([1]; 2 uM ADP, sample volume 20 μL) is reported as 896. For the same compound, the “FITC Signal Detected” value ([1]; 10 uM ADP, sample volume 5 μL) was 525, the “FITC Signal Detected” value ([1]; 10 uM ADP, sample volume 10 μL) was 616 and the “FITC Signal Detected” value ([1]; 10 uM ADP, sample volume 20 μL) was 1031. The “FITC Signal Detected” value ([2]; 2 μM ADP, sample volume 10 μL) was 1544, the “FITC Signal Detected” value ([2]; 2 μM ADP, sample volume 20 μL) was 2390 and the “FITC Signal Detected” value ([2]; 10 μM ADP, sample volume 10 μL) was 1749. For the same compound, the “FITC Signal Detected” value ([2]; 10 μM ADP, sample volume 20 μL) was 2747, the “FITC Signal Detected” value ([3]; 10 min. incubation) was 1235 and the “FITC Signal Detected” value ([3]; 15 min. incubation) was 1526. The FITC Signal Detected [4] was 17349.
